Entries after “also recorded” stand apart in the source; their conditions may differ.
Key:
[1] = test system: OE33 and FLO-1 cells; assay: Antiproliferative screening, both OC cell lines together; assay type: cell-based, human; conditions: for antiproliferative activity (in words): dose range 0.003-30 μM
[2] = target: T1, AuroraA (Homo sapiens, UniProt O14965); assay: 33PanQinase kinome profiling; assay type: biochemical; conditions: mean, respect to DMSO control
T1 sequence (O14965 1-403): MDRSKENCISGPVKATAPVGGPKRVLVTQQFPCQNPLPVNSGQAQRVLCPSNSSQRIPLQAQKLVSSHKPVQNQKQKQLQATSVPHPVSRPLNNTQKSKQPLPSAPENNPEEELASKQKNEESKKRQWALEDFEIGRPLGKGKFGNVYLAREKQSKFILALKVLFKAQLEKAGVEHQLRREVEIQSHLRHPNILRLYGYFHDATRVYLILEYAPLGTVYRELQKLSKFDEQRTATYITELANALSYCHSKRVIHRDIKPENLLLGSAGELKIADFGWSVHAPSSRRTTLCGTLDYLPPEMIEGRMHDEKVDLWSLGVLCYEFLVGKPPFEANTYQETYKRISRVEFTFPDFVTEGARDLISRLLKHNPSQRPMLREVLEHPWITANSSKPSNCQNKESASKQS

[3] = target: T2, AXL (Homo sapiens, UniProt P30530); assay: 33PanQinase kinome profiling; assay type: biochemical; conditions: 1 μM
T2 sequence (P30530 26-894): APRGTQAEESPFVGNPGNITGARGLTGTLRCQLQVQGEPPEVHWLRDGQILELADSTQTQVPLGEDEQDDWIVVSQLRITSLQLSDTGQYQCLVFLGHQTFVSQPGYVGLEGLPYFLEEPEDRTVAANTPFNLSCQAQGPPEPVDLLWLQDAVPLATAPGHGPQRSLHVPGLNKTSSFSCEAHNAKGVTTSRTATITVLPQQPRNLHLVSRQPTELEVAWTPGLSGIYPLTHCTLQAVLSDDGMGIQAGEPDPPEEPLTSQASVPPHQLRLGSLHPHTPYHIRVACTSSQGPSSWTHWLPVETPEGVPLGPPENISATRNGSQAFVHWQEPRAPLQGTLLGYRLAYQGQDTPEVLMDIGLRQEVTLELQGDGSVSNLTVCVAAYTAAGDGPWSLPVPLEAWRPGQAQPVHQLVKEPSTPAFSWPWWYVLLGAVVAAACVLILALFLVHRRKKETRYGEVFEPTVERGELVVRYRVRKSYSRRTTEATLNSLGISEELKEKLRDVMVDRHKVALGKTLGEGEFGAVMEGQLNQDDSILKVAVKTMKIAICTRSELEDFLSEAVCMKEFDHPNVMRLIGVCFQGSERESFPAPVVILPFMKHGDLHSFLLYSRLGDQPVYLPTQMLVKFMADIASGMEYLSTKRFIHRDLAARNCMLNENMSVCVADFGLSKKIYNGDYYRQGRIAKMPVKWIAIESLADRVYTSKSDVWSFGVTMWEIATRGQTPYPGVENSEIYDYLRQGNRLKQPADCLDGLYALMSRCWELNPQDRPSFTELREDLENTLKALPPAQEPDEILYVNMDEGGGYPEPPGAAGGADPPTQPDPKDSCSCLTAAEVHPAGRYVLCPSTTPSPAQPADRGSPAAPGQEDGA

[4] = target: T3, FLT3 (Homo sapiens, UniProt P36888); assay: 33PanQinase kinome profiling; assay type: biochemical; conditions: mean, respect to DMSO control
T3 sequence (P36888 564-993 limits assumed): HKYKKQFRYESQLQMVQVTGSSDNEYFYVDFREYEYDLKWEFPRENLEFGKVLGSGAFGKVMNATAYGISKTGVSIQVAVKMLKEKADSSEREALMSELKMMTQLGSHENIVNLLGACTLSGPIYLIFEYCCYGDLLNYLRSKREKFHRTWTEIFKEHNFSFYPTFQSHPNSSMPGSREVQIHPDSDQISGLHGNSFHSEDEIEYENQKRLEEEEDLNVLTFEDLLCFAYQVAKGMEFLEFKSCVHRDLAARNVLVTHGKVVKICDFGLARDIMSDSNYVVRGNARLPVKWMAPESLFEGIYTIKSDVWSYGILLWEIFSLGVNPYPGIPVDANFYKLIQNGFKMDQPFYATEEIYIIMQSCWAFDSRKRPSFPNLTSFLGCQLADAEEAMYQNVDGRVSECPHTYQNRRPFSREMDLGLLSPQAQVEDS

[5] = target: RET (Homo sapiens, UniProt P07949); assay: 33PanQinase kinome profiling; assay type: biochemical; conditions: mean, respect to DMSO control
[6] = test system: OE33 cells; assay: Cell cycle assay; assay type: cell-based, human; conditions: 3 μM, 72 h, vs DMSO control
[7] = test system: FLO-1 cells; assay: Cell cycle assay; assay type: cell-based, human; conditions: 3 μM, 72 h, vs DMSO control
[8] = target: T4, Nano-Luc-Aurora A (fusion vector) in HEK293 (Homo sapiens, UniProt O14965); assay: NanoBRET target engagement assay; assay type: cell-based; conditions: HEK293, 1 h treatment, 0.001-100 µM
T4 sequence (O14965 1-403): T1 sequence (O14965 1-403)

RET, sequence (P07949 29-1114): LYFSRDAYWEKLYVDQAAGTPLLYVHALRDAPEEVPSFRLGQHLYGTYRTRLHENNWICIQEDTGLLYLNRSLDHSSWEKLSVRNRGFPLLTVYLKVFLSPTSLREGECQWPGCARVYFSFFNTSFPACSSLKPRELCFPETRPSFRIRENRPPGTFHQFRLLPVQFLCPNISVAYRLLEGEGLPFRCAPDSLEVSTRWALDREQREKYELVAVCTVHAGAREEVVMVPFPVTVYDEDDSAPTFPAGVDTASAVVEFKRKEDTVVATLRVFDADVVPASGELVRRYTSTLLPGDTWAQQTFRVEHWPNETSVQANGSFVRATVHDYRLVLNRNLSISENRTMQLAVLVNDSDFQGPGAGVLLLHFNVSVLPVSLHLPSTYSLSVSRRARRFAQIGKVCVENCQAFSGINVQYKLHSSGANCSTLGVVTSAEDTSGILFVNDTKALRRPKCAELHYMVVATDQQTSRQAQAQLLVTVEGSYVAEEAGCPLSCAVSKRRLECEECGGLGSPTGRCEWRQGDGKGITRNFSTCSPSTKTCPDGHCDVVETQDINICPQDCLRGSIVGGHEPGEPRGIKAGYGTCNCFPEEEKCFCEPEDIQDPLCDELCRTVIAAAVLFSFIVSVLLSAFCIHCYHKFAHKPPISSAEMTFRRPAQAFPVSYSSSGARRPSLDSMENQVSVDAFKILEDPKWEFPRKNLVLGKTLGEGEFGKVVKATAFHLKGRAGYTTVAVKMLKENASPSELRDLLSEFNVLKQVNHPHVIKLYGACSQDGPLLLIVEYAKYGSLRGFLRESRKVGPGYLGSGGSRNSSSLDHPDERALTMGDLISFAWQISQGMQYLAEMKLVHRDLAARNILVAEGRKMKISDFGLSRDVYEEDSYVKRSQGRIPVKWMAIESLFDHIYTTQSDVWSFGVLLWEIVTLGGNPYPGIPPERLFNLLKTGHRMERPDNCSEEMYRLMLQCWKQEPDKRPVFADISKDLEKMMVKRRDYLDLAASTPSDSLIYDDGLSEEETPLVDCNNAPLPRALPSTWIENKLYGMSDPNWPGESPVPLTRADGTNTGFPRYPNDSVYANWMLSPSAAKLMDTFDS

## COC1CCN(C(=O)/C=C/c2nn(CC3CCCC3)c3ncnc(N)c23)CC1 [1A7]
[1]
  antiproliferative activity (in words): completely inactive

## CNc1ncc2c(/C=C/C(=O)N3CCC4(CC3)OCCO4)nn(Cc3cccc(C)c3)c2n1 [2C4]
[1]; compared with 2B10
  fold increase in antiproliferative potency over 2B10: 2 fold

## CNc1ncc2c(/C=C/C(=O)N3CCC(OC)CC3)nn(Cc3cccc(C(F)(F)F)c3)c2n1 [2D7, (2E)-1-(4-Methoxypiperidin-1-yl)-3-[6-(methylamino)-1-{[3-(trifluoromethyl)phenyl]methyl}-1H-pyrazolo[3,4-d]pyrimidin-3-yl]prop-2-en-1-one]
[2]
  % Inhibition [1uM]: > 50%
[3]
  inhibition of AXL (in words): minimal to no inhibition
[4]
  % Inhibition [1uM]: minimal to no inhibition
[5]
  % Inhibition [1uM]: minimal to no inhibition
[6]
  effect on the cell cycle (in words): rapid arrest of cells in the G2/M phase; also recorded: slight increase in the number of cells in the sub-G1 phase
[7]
  effect on the cell cycle (in words): enrichment of cells in the S and G2/M phases
[8]
  AURKA target engagement in cells (in words): direct dose-dependent binding

## Nc1ncnc2c1c(/C=C/C(=O)O)nn2CC1CCCC1 [compound 10]
[1]
  antiproliferative activity (in words): lack of activity

## CNc1ncc2c(/C=C/C(=O)O)nn(CC3CCCC3)c2n1 [compound 12]
[1]
  antiproliferative activity (in words): lack of activity

Reference: article PMC11528321 (RSC Medicinal Chemistry, 2024)
